Where only a bound is given, the exact number is not on record here.

The test system of one data set is cells in tissue culture. To be noted: cited from earlier work.
Data set [1] concerns the target T1, ENT2 (Homo sapiens, UniProt Q14542).
T1 sequence (Q14542 1-456): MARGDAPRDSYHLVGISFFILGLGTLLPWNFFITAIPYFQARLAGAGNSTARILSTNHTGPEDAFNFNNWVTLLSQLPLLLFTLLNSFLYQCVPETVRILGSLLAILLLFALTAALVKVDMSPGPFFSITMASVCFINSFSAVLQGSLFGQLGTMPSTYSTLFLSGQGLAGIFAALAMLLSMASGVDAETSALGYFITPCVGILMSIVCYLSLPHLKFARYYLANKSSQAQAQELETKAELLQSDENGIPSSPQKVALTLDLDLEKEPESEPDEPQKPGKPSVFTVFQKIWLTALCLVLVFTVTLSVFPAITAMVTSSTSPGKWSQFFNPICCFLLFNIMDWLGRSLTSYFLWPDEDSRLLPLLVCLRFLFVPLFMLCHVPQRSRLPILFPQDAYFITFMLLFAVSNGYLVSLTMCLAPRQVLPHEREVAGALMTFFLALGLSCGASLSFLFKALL
In words: Inhibition of ENT2 by NBMPR (Ward et al.). It is filed as biochemical.

Data set [2] has as its target T1, ENT2. The following applies: read-out: Ki of NBMPR for ENT2; Ward et al., J. Biol. Chem. 2000; cited from earlier work.
The subject of data set [3] is ENT subtype equilibrative, insensitive (ei). The following applies: low concentrations (e.g., <1 μM) of NBMPR; cited from earlier work.
The next data set has as its target T2, ENT4 (Homo sapiens, UniProt Q7RTT9).
T2 sequence (Q7RTT9 1-530): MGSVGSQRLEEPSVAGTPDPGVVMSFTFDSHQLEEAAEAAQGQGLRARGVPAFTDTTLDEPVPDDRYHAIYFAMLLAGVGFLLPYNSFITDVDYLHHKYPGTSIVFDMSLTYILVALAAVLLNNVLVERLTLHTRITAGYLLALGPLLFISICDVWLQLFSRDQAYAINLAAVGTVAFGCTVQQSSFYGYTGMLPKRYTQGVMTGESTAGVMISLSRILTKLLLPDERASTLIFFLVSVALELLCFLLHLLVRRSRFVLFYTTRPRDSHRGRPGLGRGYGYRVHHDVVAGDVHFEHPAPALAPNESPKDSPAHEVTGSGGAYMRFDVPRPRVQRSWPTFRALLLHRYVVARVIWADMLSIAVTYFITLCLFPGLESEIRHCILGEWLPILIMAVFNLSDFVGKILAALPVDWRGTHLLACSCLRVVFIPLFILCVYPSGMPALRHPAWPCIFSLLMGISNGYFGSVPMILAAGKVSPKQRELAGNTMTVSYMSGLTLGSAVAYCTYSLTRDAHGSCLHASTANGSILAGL
To be noted: cited from earlier work.

“mAb 3E10: monoclonal anti-DNA antibody produced by hybridoma 3E10, ATCC accession number PTA-2439”: the “harm to cells that it penetrates” value in the data set on cells in tissue culture was “no harm”.

The Ki is a measure of affinity in units of concentration, obtained from inhibition or displacement. `O=[N+]([O-])c1ccc(CSc2ncnc3c2ncn3C2OC(CO)C(O)C2O)cc1` (stereo not drawn) [NBMPR, Nitrobenzylmercaptopurine riboside]: the ENT2 activity result on ENT2 [1] (at 10 μM NBMPR) is listed as “retains moderate activity”. Besides, on ENT2 [1] (by 10 μM NBMPR), the “expected suppression of ENT2 activity” value is given as greater than 50%. Moreover, the inhibition constant Ki on ENT2 [2] was 2.8 µM. Moreover, the “effect of NBMPR on the ei subtype” value in data set [3] was “unaffected”. Besides, the “inhibition of ENT4 by NBMPR” value on ENT4 was “weakly inhibited”.
